For one assay, the target named is T1, OsD14 (Oryza sativa subsp. japonica, UniProt Q10QA5).
T1 construct: made in house; host or cells: E. coli BL21 (DE3)
T1 sequence (Q10QA5 1-318): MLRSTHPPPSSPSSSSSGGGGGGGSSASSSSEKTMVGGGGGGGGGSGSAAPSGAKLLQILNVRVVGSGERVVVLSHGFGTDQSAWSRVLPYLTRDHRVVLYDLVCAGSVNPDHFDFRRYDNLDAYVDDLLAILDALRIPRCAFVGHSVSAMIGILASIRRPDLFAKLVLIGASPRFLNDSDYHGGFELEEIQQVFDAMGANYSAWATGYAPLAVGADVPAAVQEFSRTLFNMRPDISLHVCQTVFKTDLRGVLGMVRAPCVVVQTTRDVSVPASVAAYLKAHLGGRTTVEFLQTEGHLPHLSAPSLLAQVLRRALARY
Description: Intrinsic tryptophan fluorescence assay, OsD14. The class given is binding, rice. An excerpt: Striga hermonthica ShHTL7 cDNA was used, GenBank accession KR013127, kindly provided by Tsuyoshi Ota, The University of Tokyo, Japan. Arabidopsis D14 (AtD14) cDNA, GenBank accession AY097402, was synthesized and cloned into pUC57 (GenScript). ShHTL7 and OsD14 cDNAs were amplified by RT-PCR using the primers shown in Supplementary Table S2, digested with BamHI and XhoI, and ligated into BamHI/XhoI-digested pGEX-6P-1 expression vector (GE Healthcare). Integrity of plasmids was confirmed by sequencing (KAUST Bioscience Core Lab). The plasmids were then transformed into E. coli BL21 (DE3) cells. The cells were grown in LB broth containing ampicillin ([…]), incubated at 37 °C until OD600 of 0.6 and induced with 0.1 mM isopropyl-β-D-thiogalactopyranoside at 16 °C for 16 h. Harvested cells were resuspended in lysis buffer: 50 mM Tris–HCl (pH 8.0), 200 mM NaCl, 0.5% Tween-20 and 2 mM dithiothreitol (DTT). After sonication on ice for 10 min, the lysate was centrifuged at 75 000 g for 30 min at 4 °C. Supernatant was allowed to bind to glutathione–sepharose beads (GE Healthcare) for 2 h at 4 °C, washed 3 times with buffer (50 mM Tris-HCl (pH 8.0), 200 mM NaCl, 2 mM DTT), and eluted by cleaving the GST moiety with PreScission™ Protease (GE Healthcare) at 4 °C overnight. Eluted protein was further purified by gel filtration using a HiLoad 16/60 Superdex200 prep grade column (GE Healthcare) on an AKTA prime system (GE Healthcare) in gel filtration buffer (10 mM HEPES pH 7.5, 50 mM KCl and 2 mM DTT). Protein eluted as a sharp single peak and purity was judged by 4–15% SDS-PAGE (Bio-Rad). Purified protein was concentrated using an Amicon 10K filter unit (Merck Millipore) and stored at −80 °C until use. A similar expression and purification protocol was followed for OsD14 protein, except that OsD14 was eluted from glutathione resins using 0.2 mM reduced glutathione (Sigma-Aldrich) without cutting the GST tag.
ShHTL7/D14 tryptophans were excited at 280 nm and emission intensity was measured at 333 nm. ShHTL7/D14 (10 μM) was incubated at various dilutions (0.2, 0.4, 0.8, 1.6, 3.12, 6.25, 12.5, 25, and 50 μM) of GR24 and MPs for 30 min at room temperature before measurement. Each concentration point was measured in triplicate. Emitted fluorescence was monitored using a spectraMaxi3 plate reader (Molecular Devices) in 96-well black plates. Changes in tryptophan fluorescence intensity occur due to conformational changes in protein when it is bound to ligand; differences in fluorescence intensity were recorded and analysed. Data were normalized and dissociation coefficient (Kd) values were calculated by fitting to a binding saturation single-site model with Prism 6 (GraphPad).

The subject of the next assay is rice d10 mutant. The assay can be described thus: Rice micro tillering bioassay, d10 mutant. It counts as in vivo. To be noted: for EC50: Oryza sativa, read-out: EC50 for tillering inhibition of the rice d10 mutant. On the procedure: Rice seeds (WT, d3, d10) were surface-sterilized by washing with 70% ethanol for 1 min and then with 2.5% sodium hypochlorite for 15 min. Seeds were then rinsed thoroughly with sterile MilliQ water and incubated in water for 2 d at 30 °C in the dark. Pre-germinated seeds were transferred to filter papers containing half-strength MS medium in 90 mm Petri dishes and incubated at 30 °C under fluorescent white light (130–180 μmol m^−2 s^−1) for 1 week. Seven-day-old seedlings were transferred to 50 ml falcon tubes (one seedling per tube) containing modified half-strength Hoagland nutrient solution and grown in greenhouse. Plants were treated with MPs at 2.5 μM to 2.5 × 10^–7 μM, using GR24 as positive control. The compounds were applied six times, twice a week. Number of tillers per plant, plant height and fresh biomass were measured at final harvest.
Statistical analyses were carried out using the statistical software package R (version 3.2.2). Dose–response curves and half-maximum effective concentrations (EC50) were calculated to determine optimum amount of MPs. The synthetic strigolactone analog GR24 was used as reference to estimate efficacy of selected compounds. EC50 and estimated response were calculated using the drc package (https://cran.r-project.org/web/packages/drc/) with a four parameter logistic curve (dose–response curve) ([Ritz and Streibig, 2005]).

In another assay the test system is S. hermonthica seeds. The assay can be described thus: Striga hermonthica seed germination bioassay. It counts as in vivo. To be noted: for EC50: Striga hermonthica, concentrations 10^–5 to 10^–12 M. Here is the method:
Parasitic weed seeds’ (S. hermonthica and P. ramosa) germination activity was studied as described previously ([Jamil et al., 2012]). Six pre-conditioned seed discs were placed in a 90 mm Petri dish containing a filter paper ring wetted with 0.9 ml sterile MilliQ water. Then 50 μl of SL analog solution (10^–5–10^–12 M) was applied on each of the six discs, for each concentration. GR24 solutions with equal concentrations and sterile MilliQ water were included as a positive and negative control, respectively. After application, seeds of S. hermonthica and P. ramosa were incubated in dark at 30 °C for 2 d and at 25 °C for 4 d, respectively. Germination (seeds with radicle emerging through the seed coat) was scored under a binocular microscope, and germination rate (%) was calculated. Statistical analyses were carried out using the statistical software package R (version 3.2.2). Dose–response curves and half-maximum effective concentrations (EC50) were calculated to determine optimum amount of MPs. The synthetic strigolactone analog GR24 was used as reference to estimate efficacy of selected compounds. EC50 and estimated response were calculated using the drc package (https://cran.r-project.org/web/packages/drc/) with a four parameter logistic curve (dose–response curve) ([Ritz and Streibig, 2005]).

The mark [1] stands for this setting: 10 μM protein, 30 min, room temperature, read-out: Kd, OsD14.

Experimental findings from PMC5913645, “Methyl phenlactonoates are efficient strigolactone analogs with simple structure” (Journal of Experimental Botany, 2017) are described below.

“Also recorded” adds a separate entry of the source. Where two headings read alike, the source gives them in different places.

In the case of `COC(=O)/C(=C/OC1C=C(C)C(=O)O1)c1ccc(Cl)cc1` (stereo not shown) [MP7], on OsD14 (setting [1]), the Kd worked out at 8740 ± 830 nM. Also, the EC50 in the assay with rice d10 mutant was 25.4 nM. The “germination activity, order among the chlorophenyl compounds” value in the assay on S. hermonthica seeds (species not given) is “highest germination activity with MP7 (Cl in para position) followed by MP9 (ortho position) and MP8 (meta position)”.

For `COC(=O)/C(=C/OC1C=C(C)C(=O)O1)c1ccccc1` (stereo not shown) [MP3, (E)-methyl 3-(4-methyl-5-oxo-2,5-dihydrofuran-2-yloxy)-2-phenylacrylate], the Kd on OsD14 (setting [1]) was determined as 7460 ± 530 nM. The “growth, senescence symptoms and biomass of rice seedlings” value with rice d10 mutant (2.5 μM) was “stunted the growth and caused senescence symptoms; also recorded: growth retardation and senescence”. Moreover, the EC50 in the assay with rice d10 mutant stood at 2.98 nM; in the assay on S. hermonthica seeds it was 87 nM.

On to `COC(=O)/C(=C/OC1C=C(C)C(=O)O1)c1ccc([N+](=O)[O-])cc1` (stereo not shown) [MP1, (E)-methyl 3-(4-methyl-5-oxo-2,5-dihydrofuran-2-yloxy)-2-(4-nitrophenyl)acrylate], for which the Kd on OsD14 (setting [1]) turned out to be 3520 ± 350 nM. Besides, the results for the EC50 in the assay with rice d10 mutant and in the assay with S. hermonthica seeds were 242 nM and 1.5 nM, respectively. Besides, the “S. hermonthica germination rate” value in the assay on S. hermonthica seeds (1.0 μM) is recorded as 75%. Further, the “Striga germination activity, times weaker than GR24” value in the assay on S. hermonthica seeds (from EC50 values) is reported as “around 17 times”.

On to `CC1=CC(OC=C2C(=O)OC3c4ccccc4CC23)OC1=O` (stereo not shown) [GR24, reference compound], for which, on OsD14, the Kd amounted to 4170 ± 320 nM. Also, in the assay with rice d10 mutant (2.5 μM, hydroponic culture, Mock four tillers per plant), the “number of tillers per plant, d10 mutant” value is reported as “one”. The results for the EC50 in the assay with rice d10 mutant and in the assay with S. hermonthica seeds were 48.3 nM and 0.091 nM, respectively.

As a reminder, the Kd is the free concentration of one partner at which half of the binding sites on the other are occupied at equilibrium, for simple one-to-one binding. Broadly, the EC50 is the midpoint of the concentration-response curve.
